The values below come from US8163909B2, “Substituted hydroxyethyl amine compounds as beta-secretase modulators and methods of use” (Amgen Inc., priority 2007, dated 2012).

Like-named read-outs stand apart in the source and are kept apart here.

Experiment [1] addresses Beta Secretase enzyme (BACE) (Homo sapiens, UniProt P56817). Kind of experiment: In vitro enzymatic BACE FRET (fluorescence resonance energy transfer) assay.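 Note: fluorescence read after 1 h with 50 nM quenched peptide substrate spanning the BACE cleavage site, in pH 4.2 acetate buffer containing 10% DMSO and nonionic detergent.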 The experiment is classed as biochemical.
The test system of experiment [2] is Aβ40 in conditioned medium of cells stably expressing Amyloid Precursor Protein (APP). In words: In vitro BACE cell-based assay (Aβ40 in conditioned medium, sandwich ELISA).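 Note: compounds added as a dilution series, secreted peptide quantified by europium time-resolved fluorescence readout, potency fitted from percent of control versus compound concentration.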
Where [3] appears, read: BACE enzyme FRET assay, read-out: BACE1 FRET assay (IC50).
Setting [4] is: Homo sapiens, HEK293, HEK cells, cell-based assay, read-out: HEK cell assay (IC50).
The mark [5] stands for this setting: BACE enzyme assay, read-out: BACE1 FRET assay (IC50).
Setting [6] is: Table 1, read-out: BACE1 FRET assay.
[7] abbreviates: Homo sapiens, HEK293, Table 1, HEK cells, read-out: HEK cell assay.

Beta Secretase enzyme (BACE), sequence (P56817 46-501): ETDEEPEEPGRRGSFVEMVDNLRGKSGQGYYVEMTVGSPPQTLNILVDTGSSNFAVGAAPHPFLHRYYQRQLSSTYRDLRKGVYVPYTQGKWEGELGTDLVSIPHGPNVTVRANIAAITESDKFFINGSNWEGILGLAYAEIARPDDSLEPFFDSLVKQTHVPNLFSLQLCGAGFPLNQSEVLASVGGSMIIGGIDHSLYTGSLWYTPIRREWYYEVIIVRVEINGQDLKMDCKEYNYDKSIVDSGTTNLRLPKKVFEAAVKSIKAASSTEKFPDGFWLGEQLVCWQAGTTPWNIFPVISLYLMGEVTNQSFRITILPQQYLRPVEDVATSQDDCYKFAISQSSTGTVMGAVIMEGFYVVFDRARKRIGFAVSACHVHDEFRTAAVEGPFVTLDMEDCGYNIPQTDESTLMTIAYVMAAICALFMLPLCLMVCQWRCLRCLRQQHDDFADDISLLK

“(2R)—N-((1S,2R)-1-((4-fluorophenyl)methyl)-2-hydroxy-3-(((4′S)-6′-(3,3,3-trifluoropropyl)-3′,4′-dihydrospiro[cyclobutane-1,2′-pyrano[2,3-b]pyridin]-4′-yl)amino)propyl)-2-(methyloxy)propanamide ′(2S)—N-((1S,2R)-1-((4-fluorophenyl)methyl)-2-hydroxy-3-(((4′S)-6′-(3,3,3-trifluoropropyl)-3′,4′-dihydrospiro[cyclobutane-1,2′-pyrano[2,3-b]pyridin]-4′-yl)amino)propyl)-2-(methyloxy)propanamide [compound 192]”: the IC50 in experiment [1] (setting [3]) turned out to be 1.02 µM; in experiment [2] (HEK cells, cell-based assay, read-out: HEK cell assay (IC50)) it was 2.03 µM.

Regarding `CO[C@H](C)C(=O)N[C@@H](Cc1cc(Br)c2c(c1)OCO2)[C@H](O)CN[C@H]1CC2(CCC2)Oc2ncc(CC(C)(C)C)cc21` [compound 210, (2R)—N-((1S,2R)-1-((7-bromo-1,3-benzodioxol-5-yl)methyl)-3-(((4′S)-6′-(2,2-dimethylpropyl)-3′,4′-dihydrospiro[cyclobutane-1,2′-pyrano[2,3-b]pyridin]-4′-yl)amino)-2-hydroxypropyl)-2-(methyloxy)propanamide], the IC50 stood at 0.163 µM in experiment [1] (setting [3]) and 0.224 µM in experiment [2] (setting [4]).

Regarding `CO[C@H](C)C(=O)N[C@@H](Cc1cc(F)cc(Cl)c1)[C@H](O)CN[C@H]1CC2(CCC2)Oc2ccc(CC(C)C)cc21` [compound 805], the IC50 worked out at 0.003 µM in experiment [1] (BACE enzyme assay, IC50's in uM, read-out: BACE1 FRET assay) and 0.07 µM in experiment [2] (Homo sapiens, HEK293, HEK cell-based assay, IC50's in uM, read-out: HEK cell assay).

Regarding `COCC(=O)N[C@@H](Cc1ccc2c(c1)OCO2)[C@H](O)CN[C@H]1CC2(CCC2)Cc2ncc(CC(C)(C)C)cc21` [compound 168], the IC50 came to 0.149 µM in experiment [1] (setting [5]) and 0.211 µM in experiment [2] (setting [4]).

With `CC(C)(C)Cc1cnc2c(c1)[C@@H](NC[C@@H](O)[C@H](Cc1ccc3c(c1)OCO3)NC(=O)[C@H]1CCCO1)CC1(CCC1)O2` [compound 454, (2R)-N-((1S,2R)-1-(1,3-benzodioxol-5-ylmethyl)-3-(((4′S)-6′-(2,2-dimethylpropyl)-3′,4′-dihydrospiro[cyclobutane-1,2′-pyrano[2,3-b]pyridin]-4′-yl)amino)-2-hydroxypropyl)tetrahydro-2-furancarboxamide], the IC50 in experiment [1] (Table 2, read-out: BACE1 FRET assay) worked out at 0.02 µM; in experiment [2] (Homo sapiens, HEK293, Table 2, HEK cells, read-out: HEK cell assay), 0.027 µM.

`CC(=O)N[C@@H](Cc1ccc(F)cc1)[C@H](O)CN[C@H]1CC2(CCC2)Cc2ncc(CC(C)(C)C)cc21` [compound 164]: the figures for the IC50 in experiment [1] (setting [5]) and in experiment [2] (setting [4]) were 0.0623 µM and 0.0205 µM, respectively.

Take `CC(=O)N[C@@H](Cc1ccccc1)[C@H](O)CN[C@H]1CC2(CCC2)Oc2ncc(CC(C)(C)CF)cc21` [compound 180]: the IC50 in experiment [1] (setting [5]) turned out to be 0.00232 µM; in experiment [2] (setting [4]), 0.007 µM.

As for `CNc1nc(CC(C)(C)C)cc2c1OC1(CCC1)C[C@@H]2N(C)C[C@@H](O)[C@H](Cc1ccc2c(c1)OCO2)NC(=O)[C@@H](C)OC` [compound 145], the IC50 in experiment [1] (setting [5]) was determined as 0.298 µM; in experiment [2] (setting [4]), 0.777 µM.

On to `COCC(=O)N[C@@H](Cc1cccc(F)c1)[C@H](O)CN[C@H]1CC2(CCC2)Oc2ncc(CC(C)(F)F)cc21` [compound 278], for which the figures for the IC50 in experiment [1] (setting [3]) and in experiment [2] (setting [4]) were 0.00676 µM and 0.00822 µM, respectively.

`CC(=O)N[C@@H](Cc1ccc(Cl)c(F)c1)[C@H](O)CN[C@H]1CC2(CCC2)Oc2ncc(CC(C)(C)C(F)F)cc21` [compound 225]: the IC50 in experiment [1] (setting [3]) stood at 0.00922 µM; in experiment [2] (setting [4]), 0.0239 µM.

In the case of `CC(=O)N[C@@H](Cc1ccc(F)c(OC(F)(F)F)c1)[C@H](O)CN[C@H]1CC2(CCC2)Oc2ncc(CC(C)(C)F)cc21` [compound 77], the IC50 worked out at 0.00488 µM in experiment [1] (setting [5]) and 0.016 µM in experiment [2] (setting [4]).

As to `CC(=O)N[C@@H](Cc1ccc2c(c1)OCO2)[C@H](O)CN[C@H]1CC2(CCC2)Oc2ncc(CC(C)(F)F)cc21` [compound 275], the IC50 was 0.082 µM in experiment [1] (setting [3]) and 0.0638 µM in experiment [2] (setting [4]).

`CC(=O)N[C@@H](Cc1ccc(F)cc1)[C@H](O)CN[C@H]1CC2(CCC2)Oc2c1cc(CC(C)(C)C)nc2NCC(F)(F)F` [compound 144]: the IC50 in experiment [1] (setting [5]) is 0.0944 µM; in experiment [2] (setting [4]) it was 0.634 µM.

For `COCC(=O)NC(Cc1ccc2c(c1)OCO2)C(O)CNC1CC2(CC(O)C2)Oc2ccc(CC(C)(C)C)cc21` [compound 267, N-((1S,2R)-1-(1,3-benzodioxol-5-ylmethyl)-3-(((2s,3′S,4S)-6-(2,2-dimethylpropyl)-3′-hydroxy-3,4-dihydrospiro[chromene-2,1′-cyclobutan]-4-yl)amino)-2-hydroxypropyl)-2-(methyloxy)acetamide], the IC50 in experiment [1] (setting [3]) stood at 0.0318 µM; in experiment [2] (setting [4]), 0.0314 µM.

For `CO[C@@H](C)C(=O)N[C@@H](Cc1ccc(F)cc1)[C@H](O)CN[C@H]1CC2(CCC2)Oc2c(F)cc(CC(C)(C)C)cc21` [compound 175], the results for the IC50 in experiment [1] (setting [5]) and in experiment [2] (setting [4]) were 0.0173 µM and 0.229 µM, respectively.

With `CC(=O)N[C@@H](Cc1ccc(F)cc1)[C@H](O)CN[C@H]1C[C@]2(CC[C@H]2O)Oc2ncc(CC(C)(C)C)cc21` [compound 118], the IC50 came out at 0.00911 µM in experiment [1] (setting [5]) and 0.028 µM in experiment [2] (setting [4]).

Regarding `CC(=O)N[C@@H](Cc1cccc(F)c1)[C@H](O)CN[C@H]1CC2(CCC2)Oc2ncc([C@H](F)[C@H](C)C(F)(F)F)cc21` [compound 322], the IC50 in experiment [1] (setting [6]) was found to be 0.0109 µM; in experiment [2] (setting [7]), 0.0399 µM.

Consider `CC(=O)N[C@@H](Cc1ccc2c(c1)OCCO2)[C@H](O)CN[C@H]1CC2(CCC2)Oc2ncc(CC(C)(C)C)cc21` [compound 205], for which the IC50 in experiment [1] (setting [3]) and in experiment [2] (setting [4]) was 0.0229 µM each time.

Turning to `COCC(=O)N[C@@H](Cc1ccc(F)cc1)[C@H](O)CN[C@H]1CC2(CCC2)Oc2c(-c3ccncc3)cc(CC(C)(C)F)cc21` [compound 538], the IC50 was determined as 0.047 µM in experiment [1] (BACE enzyme assay, read-out: BACE1 FRET assay) and 0.043 µM in experiment [2] (Homo sapiens, HEK293, HEK cells, read-out: HEK cell assay).

Consider `CC(=O)N[C@@H](Cc1ccc2c(c1)OCO2)[C@H](O)CN[C@H]1CC2(CC(F)(F)C2)Oc2ncc(CC(C)(C)C)cc21` [compound 55], for which the values for the IC50 in experiment [1] (setting [5]) and in experiment [2] (setting [4]) were 0.0236 µM and 0.083 µM, respectively.

For `CO[C@H](C)C(=O)N[C@@H](Cc1cccc(C#N)c1)[C@H](O)CN[C@H]1CC2(CCC2)Oc2ncc(CC(F)(F)F)cc21` [compound 345], the IC50 came out at 0.0266 µM in experiment [1] (setting [6]) and 0.0609 µM in experiment [2] (setting [7]).

For `CC(=O)N[C@@H](Cc1ccc(F)cc1)[C@H](O)CN[C@H]1C[C@@]2(CC[C@H]2O)Oc2ncc(CC(C)(C)C)cc21` [compound 116], the IC50 in experiment [1] (setting [5]) came to 0.117 µM; in experiment [2] (setting [4]) it was 0.148 µM.

`CC(=O)N[C@@H](Cc1cc(F)c2c(c1)OCO2)[C@@H](O)CN[C@H]1CC2(CCC2)Oc2ncc(CC(C)(C)C)cc21` [compound 305, N-((1S,2S)-3-(((4′S)-6′-(2,2-dimethylpropyl)-3′,4′-dihydrospiro[cyclobutane-1,2′-pyrano[2,3-b]pyridin]-4′-yl)amino)-1-((7-fluoro-1,3-benzodioxol-5-yl)methyl)-2-hydroxypropyl)acetamide]: the IC50 in experiment [1] (setting [3]) stood at 0.0379 µM; in experiment [2] (setting [4]) it was 0.058 µM.

On to `CC(=O)NC(Cc1ccc(F)cc1)C(O)CNC1CC2(CC(O)C2)Oc2ncc(CC(C)C)cc21` [compound 251, N-((1S,2R)-1-((4-fluorophenyl)methyl)-2-hydroxy-3-(((1s,3S,4′S)-3-hydroxy-6′-(2-methylpropyl)-3′,4′-dihydrospiro[cyclobutane-1,2′-pyrano[2,3-b]pyridin]-4′-yl)amino)propyl)acetamide], for which the IC50 in experiment [1] (setting [3]) came out at 0.00634 µM; in experiment [2] (setting [4]), 0.0118 µM.

For `COCC(=O)N[C@@H](Cc1ccc2c(c1)OCO2)[C@H](O)CN[C@H]1CC2(CCC2)Oc2ncc(CC3(C(F)(F)F)CC3)cc21` [compound 313], the IC50 in experiment [1] (setting [3]) is 0.151 µM; in experiment [2] (setting [4]), 0.327 µM.
